Literature values in patent publication US11253518B2, “Methods and compositions for the treatment of hair loss” (Aneira Pharma, Inc., priority 2019, dated 2022).
Values after ≈ are worked out from the molar mass of the structure shown. Read-outs that look alike come from different tables or passages of the source. One block for each compound: values may come before it.

Key:
human FP receptors [1] = target: T1, human FP receptors (Homo sapiens, UniProt P43088)
human FP receptors [2] = target: T1, human FP receptors; remark: listed apart in the source
hair growth = details: for hair growth: McCarey 2004
[3] = believed
[4] = tested on: elevated intraocular pressure; details: glaucomatous monkeys; Gagliuso 2004
[5] = tested on: elevated intraocular pressure; details: some human glaucoma patients; Gandolfi 2003
[6] = tested on: production of dihydrotestosterone (DHT); details: oral; including prostate gland and scalp
[7] = not given; remark: listed apart in the source

T1 sequence (P43088 whole entry): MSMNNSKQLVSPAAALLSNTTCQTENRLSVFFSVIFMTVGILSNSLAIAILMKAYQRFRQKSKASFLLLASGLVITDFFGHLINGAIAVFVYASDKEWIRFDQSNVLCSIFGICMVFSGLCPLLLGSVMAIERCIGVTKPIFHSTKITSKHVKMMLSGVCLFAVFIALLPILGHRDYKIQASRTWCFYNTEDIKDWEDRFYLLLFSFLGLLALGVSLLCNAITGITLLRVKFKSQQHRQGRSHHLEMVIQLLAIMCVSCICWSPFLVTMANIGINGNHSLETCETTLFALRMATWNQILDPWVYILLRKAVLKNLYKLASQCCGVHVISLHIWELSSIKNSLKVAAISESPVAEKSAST

potency relative to PGF2α (human FP receptors [1]): twice the potency
EC50 (human FP receptors [1]; FP receptor agonist): 3.6 nM
potency as FP receptor ligand relative to latanoprost (human FP receptors [2]): two-hundred times more potent
Structure (SMILES): O=C(O)CCC/C=C\C[C@@H]1[C@@H](CC[C@@H](O)CCc2ccccc2)[C@H](O)C[C@@H]1O [Latanoprost free acid]

Structure (SMILES): CCCCCCCC(=O)CC[C@@H]1[C@@H](C/C=C\CCCC(=O)OC(C)C)[C@@H](O)C[C@H]1O [Uenoprostone isopropyl ester, Unoprostone isopropyl ester]
incidence of iris pigmentation and eyelash changes (hair growth; 0.15%, two randomized clinical trials): Low incidence
hair growth (hair growth): no hair growth

amount converted into bimatoprost free acid [3]: under 5%
Structure (SMILES): CCNC(=O)CCC/C=C\C[C@@H]1[C@@H](/C=C/[C@@H](O)CCc2ccccc2)[C@H](O)C[C@@H]1O [bimatoprost, Bimatoprost]
effect on intraocular pressure together with latanoprost [4]: additive
reduction of elevated intraocular pressure in latanoprost non-responders [5]: responsive

Structure (SMILES): CC(C)(C)NC(=O)[C@H]1CC[C@H]2[C@@H]3CC[C@H]4NC(=O)C=C[C@]4(C)[C@H]3CC[C@]12C [finasteride, (1S,3aS,3bS,5aR,9aR,9bS,11aS)-N-tert-butyl-9a,11a-dimethyl-7-oxo-1,2,3,3a,3b,4,5,5a,6,9b,10,11-dodecahydroindeno[5,4-f]quinoline-1-carboxamide]
decrease of production of dihydrotestosterone (DHT) [6]: about 70%

solubility (1:4 solution of ethanol:PBS (pH 7.2)): 400 µg/mL (≈ 925 µM)
solubility (PBS (pH 7.2)): approximately 50 μg/mL
solubility (propylene glycol, methanol, ethanol and 2-propanol): ≥ 5%
stable for ([7]; acidic or basic aqueous solutions): no more than 48 hours
stable for ([7]; neutral aqueous solutions, room temperature): up to one month
Structure (SMILES): CC(C)OC(=O)CCC/C=C\C[C@@H]1[C@@H](CC[C@@H](O)CCc2ccccc2)[C@H](O)C[C@@H]1O [latanoprost, isopropyl ester of 17-phenyl-13,14-dihydro prostaglandin F2a]

Structure (SMILES): CCCCCCCC(=O)CC[C@@H]1[C@@H](C/C=C\CCCC(=O)O)[C@@H](O)C[C@H]1O [uenoprostone free acid]
hair growth (hair growth): no hair growth
